Assay results as given in patent publication US8153390B2, “FRET-based binding assay” (Roche Palo Alto LLC, priority 2009, dated 2012).

Legend:
BTK = target: T1, BTK (Homo sapiens, UniProt Q06187); assay: Enzymatic assay for BTK (Caliper, peptide substrate); type: biochemical; settings: 5 nM BTK, 100 μM ATP; for IC50: […] peptide substrate, read-out: Enzyme IC50
T1 construct: mixed with 26 μL of purified full length BTK (final concentration of 5 nM); purchased Invitrogen (Carlsbad, Calif.)

BTK-Btn [1] = target: T2, BTK-Btn (Homo sapiens, UniProt Q06187); assay: TR-FRET competition binding assay, BTK-Btn with tracer AF647-staur; settings: read-out: FRET IC50, 0.5 nM BTK-Btn, 0.5 nM Eu-strept
T2 sequence (Q06187 whole entry): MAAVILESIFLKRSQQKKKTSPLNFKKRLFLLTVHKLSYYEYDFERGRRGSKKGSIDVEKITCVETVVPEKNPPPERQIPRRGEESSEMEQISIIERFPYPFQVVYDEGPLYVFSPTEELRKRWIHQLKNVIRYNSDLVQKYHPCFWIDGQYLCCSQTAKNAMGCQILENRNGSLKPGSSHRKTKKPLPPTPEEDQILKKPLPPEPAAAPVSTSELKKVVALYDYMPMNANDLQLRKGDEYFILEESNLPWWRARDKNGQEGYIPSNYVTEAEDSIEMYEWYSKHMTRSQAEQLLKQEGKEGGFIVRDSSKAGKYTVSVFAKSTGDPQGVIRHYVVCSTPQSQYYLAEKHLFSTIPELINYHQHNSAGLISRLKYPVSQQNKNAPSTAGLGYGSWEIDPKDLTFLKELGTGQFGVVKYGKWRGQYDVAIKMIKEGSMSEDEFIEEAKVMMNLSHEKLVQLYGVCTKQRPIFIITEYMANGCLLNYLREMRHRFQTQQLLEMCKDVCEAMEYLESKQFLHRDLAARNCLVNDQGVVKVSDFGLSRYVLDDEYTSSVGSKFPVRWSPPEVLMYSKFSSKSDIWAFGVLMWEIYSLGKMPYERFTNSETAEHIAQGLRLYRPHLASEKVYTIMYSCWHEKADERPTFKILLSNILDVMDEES

BTK-Btn [2] = target: T2, BTK-Btn; assay: TR-FRET competition binding assay, BTK-Btn with tracer TR 178 (low tracer / low kinase); design: 6xHis (N); made in house; host or cells: Sf-9 insect cells (baculovirus)
[3] = 0.05 nM BTK-Btn and 0.5 nM TR 178
[4] = 0.05 nM BTK-Btn and 0.5 nM TR 178, read-out: Low kinase IC50
[5] = 0.05 nM TR 178 and 0.5 nM BTK-Btn
[6] = 0.05 nM TR 178 and 0.5 nM BTK-Btn, read-out: Low tracer IC50

T1 sequence (Q06187 whole entry): as above

Compound | Enzyme nH (hill slope of dose response curve) (BTK) | IC50 (BTK) [µM] | IC50 (BTK-Btn [1]) [µM] | Low kinase nH (BTK-Btn [2]; [3]) | IC50 (BTK-Btn [2]; [4]) [µM] | Low tracer nH (BTK-Btn [2]; [5]) | IC50 (BTK-Btn [2]; [6]) [µM]
N#CC(C#N)=Cc1cc(O)c(O)c(O)c1 [Tyrphostin 25] | 0.6 ± 0.1 | > 100 | 48 ± 15 | 0.8 ± 0.1 | 130 ± 10 | 0.6 ± 0.2 | 45 ± 9
CC(O)=C(C#N)C(=O)Nc1cc(Br)ccc1Br [LFM-A13, alpha-cyano-beta-hydroxy-beta-methyl-N-(2,5-dibromophenyl)propenamide] | 1.1 ± 0.1 | – | – | 1.3 ± 0.1 | – | 0.6 ± 0.2 | –
Nc1ncnc2c1ncn2[C@@H]1O[C@H](COP(=O)(O)OP(=O)(O)O)[C@@H](O)[C@H]1O [ADP] | 1.0 ± 0.1 | > 100 | 46 ± 7 | 0.9 ± 0.1 | 200 ± 40 | 0.7 ± 0.2 | 40 ± 11
CC(C)(C)n1nc(-c2ccc(Cl)cc2)c2c(N)ncnc21 [PP2] | 1.1 ± 0.1 | – | – | 1.8 ± 0.1 | – | 0.9 ± 0.1 | –
